Source: US20060263344A1, “Novel probiotic compositions and methods of using the same” (priority 2003, published 2006)

Assays:
[1] = Stability of CoQ10 in a 50° C. oven open to the air (HPLC); type: physicochemical; details: for Loss of CoQ10 after 36 days at 50° C. (equivalent to 3 months at room temperature) / Loss of CoQ10 after 72 days at 50° C. (equivalent to 6 months at room temperature): open to the air
Procedure: 100 mg of USP CoQ10 (Sigma) and CoQ10 contained in a glycoprotein matrix from Example 1 was placed in a 10 ml beaker in a 50° C. oven open to the air. The amount of CoQ10 remaining was analyzed by HPLC using a C18 column (Perkin Elmer Pecosil 5, 15 cm) and a solvent of 75% methanol and 25% isopropanol.

[2] = test system: lower density lipoproteins (LDL+VLDL); experiment: Inhibition of cupric ion-induced oxidation of lower density lipoproteins (antioxidant activity); type: biochemical, humans; details: inhibition of lipid peroxide formation in LDL+VLDL, 25 μM cupric ion, 37° C., 6 hours; matrix sample based on CoQ10 conc.
Procedure: A weighed portion (50-500 mg) of solid sample of CoQ10 contained in a glycoprotein matrix was mixed with 5 ml of 50% methanol/water and heated at 90° C. in a plastic screw-capped tube with intermittent shaking for 2 hours to determine the unconjugated (“free”) phenols present. Another weighed portion of the same sample was heated with 5 ml of 1.2 M HCl in 50% aqueous methanol for 2 hours at 90° C. to measure the unconjugated plus conjugated (“total”) phenols. The extracts, each done in duplicate, were then filtered with a 0.45 μm filter and stored at −20° C. until assay. Values for free polyphenols and total phenols for commercial CoQ10 are known.
The phenol content in the extracts was measured by the Folin-Cocialteu reagent (Sigma Chemical Co., St. Louis, Mo.) using catechin (Sigma) as a standard. A blank, catechin standards and samples were added to the Folin reagent in a cuvette and after 20 minutes the color was measured at 720 nm vs. a blank. […]
The amount of lipid peroxides was measured using thiobarbituric acid and fluorometry. The % of inhibition of lipid peroxide formation was calculated vs. a control with no added antioxidants. The IC50 value in μM units was then calculated.
The amount of CoQ10 in the composition of the invention was determined by HPLC using UV detector, C18 column (Perkin Elmer Pecosil 5, 15 cm) and a solvent of 75% methanol and 25% isopropanol. […]

For `COC1=C(OC)C(=O)C(C/C=C(\C)CC/C=C(\C)CC/C=C(\C)CC/C=C(\C)CC/C=C(\C)CC/C=C(\C)CC/C=C(\C)CC/C=C(\C)CC/C=C(\C)CCC=C(C)C)=C(C)C1=O` [CoQ10 (USP), Coenzyme Q10], the “Loss of CoQ10 at 0 days” value ([1]; 0 days) was 0%, the “Loss of CoQ10 after 36 days at 50° C. (equivalent to 3 months at room temperature)” value ([1]; listed as USP CoQ10) was 6.8% and the “Loss of CoQ10 after 36 days at 50° C. (equivalent to 3 months at room temperature)” value ([1]; listed as commercial CoQ10) was 6.8%. For the same compound, the “Loss of CoQ10 after 72 days at 50° C. (equivalent to 6 months at room temperature)” value ([1]; listed as USP CoQ10) was 16.8%, the “Loss of CoQ10 after 72 days at 50° C. (equivalent to 6 months at room temperature)” value ([1]; listed as commercial sample) was 16.8% and the IC50 [2] was 1.33 µM.
